Consider 10 compounds from PubChem BioAssay AID194 (DTP/NCI, 2004).

The test system of this assay is BDF1 mice, B16 melanoma s.c., survival/tumor T/C. The experiment in a line: NCI In Vivo Anticancer Drug Screen. Data for tumor model B16 Melanoma (subcutaneous) in B6D2F1 (BDF1) mice. Here is the method: The antitumor activity of compounds was measured in mice bearing transplantable tumors. Survival or tumor size were measured and the results are expressed as the measurement made in the treated group (T) divided by the measurement made in the vehicle treated control group (C). The tumor model used in this assay is B16 Melanoma (subcutaneous) in B6D2F1 (BDF1) mice

Setting [1] is: endpoint: median survival time, dose: 0.5 mg/kg/injection, schedule: Q01DX009 (ip), vehicle: saline, higher = longer survival.
[2] abbreviates: endpoint: median survival time, dose: 1.0 mg/kg/injection, schedule: Q01DX009 (ip), vehicle: saline, higher = longer survival.
Setting [3] is: endpoint: median survival time, dose: 50.0 mg/kg/injection, schedule: Q01DX009 (ip), vehicle: saline with Tween-80, higher = longer survival.
Where [4] appears, read: endpoint: median survival time, dose: 100.0 mg/kg/injection, schedule: Q01DX009 (ip), vehicle: saline with Tween-80, higher = longer survival.

Where “and” joins values, the source holds several entries; their conditions need not be identical. Equal entries are not always repeated. Inconclusive results are not listed.

As for `Nc1ncnc2c1ccn2C1OC(CO)C(O)C1O` (stereo not drawn), the T/C was 111 % of control (endpoint: median survival time, dose: 0.25 mg/kg/injection, schedule: Q01DX009 (ip), vehicle: saline, higher = longer survival); 106 % of control (endpoint: median survival time, dose: 0.5 mg/kg/injection, schedule: Q01DX009 (ip), vehicle: Klucel (hydroxypropylcellulose) (HPC), higher = longer survival); 106 % of control under setting [1]; 110 % of control (endpoint: median survival time, dose: 1.0 mg/kg/injection, schedule: Q01DX009 (ip), vehicle: Klucel (hydroxypropylcellulose) (HPC), higher = longer survival); 99 % of control under setting [2].
Consider `O=NN(CCCl)C(=O)NC1CCCCC1`, for which the T/C is 115 % of control (endpoint: median survival time, dose: 4.0 mg/kg/injection, schedule: Q01DX009 (ip), vehicle: saline, higher = longer survival); 103 % of control (endpoint: median survival time, dose: 5.18 mg/kg/injection, schedule: Q01DX007 (ip), vehicle: Klucel (hydroxypropylcellulose) (HPC), higher = longer survival); 88 % of control (endpoint: median survival time, dose: 8.64 mg/kg/injection, schedule: Q01DX007 (ip), vehicle: Klucel (hydroxypropylcellulose) (HPC), higher = longer survival); 111 % of control and 112 % of control and 116 % of control (endpoint: median survival time, dose: 12.0 mg/kg/injection, schedule: Q01DX001 (ip), vehicle: Klucel (hydroxypropylcellulose) (HPC), higher = longer survival); 124 % of control (endpoint: median survival time, dose: 14.4 mg/kg/injection, schedule: Q01DX007 (ip), vehicle: Klucel (hydroxypropylcellulose) (HPC), higher = longer survival); 175 % of control (endpoint: median survival time, dose: 16.0 mg/kg/injection, schedule: Q01DX009 (ip), vehicle: saline, higher = longer survival). Further, the T/C is 105 % of control (endpoint: median survival time, dose: 32.0 mg/kg/injection, schedule: Q01DX009 (ip), vehicle: saline, higher = longer survival); 28 % of control and 47 % of control (endpoint: median tumor weight (est.), dose: 8.0 mg/kg/injection, schedule: Q01DX009 (ip), vehicle: Klucel (hydroxypropylcellulose) (HPC), higher = larger tumour); 96 % of control and 110 % of control (endpoint: median tumor weight (est.), dose: 12.5 mg/kg/injection, schedule: Q01DX001 (ip), vehicle: Klucel (hydroxypropylcellulose) (HPC), higher = larger tumour); 27 % of control (endpoint: median tumor weight (est.), dose: 16.0 mg/kg/injection, schedule: Q01DX009 (ip), vehicle: Klucel (hydroxypropylcellulose) (HPC), higher = larger tumour); 21 % of control (endpoint: median tumor weight (est.), dose: 50.0 mg/kg/injection, schedule: Q01DX001 (ip), vehicle: Klucel (hydroxypropylcellulose) (HPC), higher = larger tumour); 38 % of control (endpoint: median tumor weight (est.), dose: 100.0 mg/kg/injection, schedule: Q01DX001 (ip), vehicle: Klucel (hydroxypropylcellulose) (HPC), higher = larger tumour).
Turning to `C[C@@H]1CC[C@@]2(NC1)O[C@H]1C[C@H]3[C@@H]4CC=C5C[C@@H](O)CC[C@]5(C)[C@H]4CC[C@]3(C)[C@H]1[C@@H]2C`, the T/C is 121 % of control (endpoint: median survival time, dose: 0.78 mg/kg/injection, schedule: Q01DX009 (ip), vehicle: Klucel (hydroxypropylcellulose) (HPC), higher = longer survival); 121 % of control (endpoint: median survival time, dose: 1.56 mg/kg/injection, schedule: Q01DX009 (ip), vehicle: Klucel (hydroxypropylcellulose) (HPC), higher = longer survival); 120 % of control (endpoint: median survival time, dose: 6.25 mg/kg/injection, schedule: Q01DX009 (ip), vehicle: Klucel (hydroxypropylcellulose) (HPC), higher = longer survival).
For `CC1(C)N=C(N)N=C(N)N1c1ccc(CNC(=O)Nc2cccc(S(=O)(=O)F)c2)cc1`, the T/C reads like this: (endpoint: median survival time, dose: 100.0 mg/kg/injection, schedule: Q04DX003 (ip), vehicle: saline, higher = longer survival) 100 % of control; (endpoint: median survival time, dose: 225.0 mg/kg/injection, schedule: Q04DX003 (ip), vehicle: saline, higher = longer survival) 122 % of control.
With `C[C@]12C=CC(=O)C=C1CC[C@@H]1[C@@H]2C(=O)C[C@@]2(C)[C@H]1CC[C@]2(O)C(=O)CO`, the T/C is, setting by setting: (endpoint: median survival time, dose: 50.0 mg/kg/injection, schedule: Q01DX009 (ip), vehicle: Klucel (hydroxypropylcellulose) (HPC), higher = longer survival) 95 % of control and 123 % of control; under setting [3], 124 % of control; (endpoint: median survival time, dose: 50.0 mg/kg/injection, schedule: Q01DX009 (ip), vehicle: saline, higher = longer survival) 116 % of control; under setting [4], 151 % of control; (endpoint: median survival time, dose: 100.0 mg/kg/injection, schedule: Q01DX009 (ip), vehicle: saline, higher = longer survival) 100 % of control; (endpoint: median survival time, dose: 200.0 mg/kg/injection, schedule: Q01DX009 (ip), vehicle: saline with Tween-80, higher = longer survival) 157 % of control and 168 % of control. Also, the T/C reads like this: (endpoint: median survival time, dose: 400.0 mg/kg/injection, schedule: Q01DX009 (ip), vehicle: saline with Tween-80, higher = longer survival) 159 % of control; (endpoint: median tumor weight (est.), dose: 50.0 mg/kg/injection, schedule: Q01DX009 (ip), vehicle: Klucel (hydroxypropylcellulose) (HPC), higher = larger tumour) 12 % of control and 30 % of control; (endpoint: median tumor weight (est.), dose: 50.0 mg/kg/injection, schedule: Q01DX009 (ip), vehicle: saline with Tween-80, higher = larger tumour) 26 % of control; (endpoint: median tumor weight (est.), dose: 100.0 mg/kg/injection, schedule: Q01DX009 (ip), vehicle: Klucel (hydroxypropylcellulose) (HPC), higher = larger tumour) 37 % of control; (endpoint: median tumor weight (est.), dose: 100.0 mg/kg/injection, schedule: Q01DX009 (ip), vehicle: saline with Tween-80, higher = larger tumour) 41 % of control; (endpoint: median tumor weight (est.), dose: 200.0 mg/kg/injection, schedule: Q01DX009 (ip), vehicle: Klucel (hydroxypropylcellulose) (HPC), higher = larger tumour) 22 % of control. For the same compound, the T/C (endpoint: median tumor weight (est.), dose: 200.0 mg/kg/injection, schedule: Q01DX009 (ip), vehicle: saline with Tween-80, higher = larger tumour) was 12 % of control.
For the compound `O=NN(CCF)C(=O)N[C@H]1CCCC[C@H]1O`, the T/C (endpoint: median survival time, dose: 5.18 mg/kg/injection, schedule: Q01DX007 (ip), vehicle: water, higher = longer survival) was 68 % of control; the T/C (endpoint: median survival time, dose: 8.64 mg/kg/injection, schedule: Q01DX007 (ip), vehicle: water, higher = longer survival) is 105 % of control; the T/C (endpoint: median survival time, dose: 14.4 mg/kg/injection, schedule: Q01DX007 (ip), vehicle: water, higher = longer survival) was 121 % of control.
Consider `Nc1ncn(C2OC(CO)C(O)C2O)c(=O)n1` (stereo not drawn), for which the T/C is, setting by setting: (endpoint: median survival time, dose: 0.2 mg/kg/injection, schedule: Q01DX009 (ip), vehicle: saline, higher = longer survival) 100 % of control; (endpoint: median survival time, dose: 0.4 mg/kg/injection, schedule: Q01DX009 (ip), vehicle: saline, higher = longer survival) 104 % of control; under setting [1], 87 % of control; (endpoint: median survival time, dose: 0.75 mg/kg/injection, schedule: Q01DX009 (ip), vehicle: Klucel (hydroxypropylcellulose) (HPC), higher = longer survival) 111 % of control; (endpoint: median survival time, dose: 0.8 mg/kg/injection, schedule: Q01DX009 (ip), vehicle: saline, higher = longer survival) 123 % of control; under setting [2], 105 % of control. Moreover, the T/C reads like this: (endpoint: median survival time, dose: 1.6 mg/kg/injection, schedule: Q01DX009 (ip), vehicle: saline, higher = longer survival) 106 % of control; (endpoint: median survival time, dose: 3.2 mg/kg/injection, schedule: Q01DX009 (ip), vehicle: saline, higher = longer survival) 114 % of control and 116 % of control; (endpoint: median tumor weight (est.), dose: 0.75 mg/kg/injection, schedule: Q01DX009 (ip), vehicle: saline, higher = larger tumour) 87 % of control and 96 % of control; (endpoint: median tumor weight (est.), dose: 1.5 mg/kg/injection, schedule: Q01DX009 (ip), vehicle: saline, higher = larger tumour) 41 % of control and 48 % of control; (endpoint: median tumor weight (est.), dose: 3.0 mg/kg/injection, schedule: Q01DX009 (ip), vehicle: saline, higher = larger tumour) 52 % of control and 57 % of control; (endpoint: median tumor weight (est.), dose: 6.0 mg/kg/injection, schedule: Q01DX009 (ip), vehicle: saline, higher = larger tumour) 21 % of control and 26 % of control.
On to `O=c1[nH]c(=O)n([C@H]2CCCO2)cc1F`, for which the T/C is, setting by setting: (endpoint: median survival time, dose: 23.0 mg/kg/injection, schedule: Q01DX009 (ip), vehicle: saline, higher = longer survival) 101 % of control; (endpoint: median survival time, dose: 39.0 mg/kg/injection, schedule: Q01DX009 (ip), vehicle: saline, higher = longer survival) 100 % of control; (endpoint: median survival time, dose: 65.0 mg/kg/injection, schedule: Q01DX009 (ip), vehicle: saline, higher = longer survival) 100 % of control; (endpoint: median survival time, dose: 108.0 mg/kg/injection, schedule: Q04DX003 (ip), vehicle: saline, higher = longer survival) 118 % of control; (endpoint: median survival time, dose: 180.0 mg/kg/injection, schedule: Q04DX003 (ip), vehicle: saline, higher = longer survival) 107 % of control.
In the case of `O=C(O)CCNSc1ccccc1[N+](=O)[O-]`, the T/C is, setting by setting: (endpoint: median survival time, dose: 12.5 mg/kg/injection, schedule: Q01DX009 (ip), vehicle: saline with Tween-80, higher = longer survival) 105 % of control; (endpoint: median survival time, dose: 25.0 mg/kg/injection, schedule: Q01DX009 (ip), vehicle: saline with Tween-80, higher = longer survival) 109 % of control; under setting [3], 114 % of control; under setting [4], 100 % of control.
On to `CCOC(=O)C(CC(C)C)NC(=O)C(Cc1ccc(N(CCCl)CCCl)cc1)NC(C)=O` (stereo not drawn), for which the T/C by setting is: (endpoint: median survival time, dose: 1.0 mg/kg/injection, schedule: Q01DX009 (ip), vehicle: other, higher = longer survival) 91 % of control; (endpoint: median survival time, dose: 2.0 mg/kg/injection, schedule: Q01DX009 (ip), vehicle: other, higher = longer survival) 103 % of control; (endpoint: median survival time, dose: 4.0 mg/kg/injection, schedule: Q01DX009 (ip), vehicle: other, higher = longer survival) 97 % of control; (endpoint: median survival time, dose: 16.0 mg/kg/injection, schedule: Q01DX009 (ip), vehicle: other, higher = longer survival) 89 % of control.
